Assay results: patent US20140135310A1, “SULPHONAMIDE DERIVATIVES OF ALICYCLIC AMINES FOR THE TREATMENT OF CENTRAL NERVOUS SYSTEM DISEASES” (Adamed Sp. z o.o., priority 2011, published 2014)

How the values were obtained:
[1] = biological target: dopaminergic receptors D2 (Homo sapiens, UniProt P14416); assay: Radioligand binding assay, dopaminergic D2 receptors; settings: binding assay, test compound 1×10^−6 M
In short: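 Competition binding with scintillation counting of bound radioligand; specific binding taken as total minus non-specific binding measured with excess unlabelled ligand. IC50 obtained by Hill-equation non-linear regression of replicate-mean curves, then converted to Ki via Cheng–Prusoff using radioligand concentration and Scatchard-derived KD.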

[2] = biological target: dopaminergic receptors D3 (Homo sapiens, UniProt P35462); assay: Radioligand binding assay, dopaminergic D3 receptors; settings: test compound 1×10^−6 M
Chain of dopaminergic receptors D3 (P35462 whole entry): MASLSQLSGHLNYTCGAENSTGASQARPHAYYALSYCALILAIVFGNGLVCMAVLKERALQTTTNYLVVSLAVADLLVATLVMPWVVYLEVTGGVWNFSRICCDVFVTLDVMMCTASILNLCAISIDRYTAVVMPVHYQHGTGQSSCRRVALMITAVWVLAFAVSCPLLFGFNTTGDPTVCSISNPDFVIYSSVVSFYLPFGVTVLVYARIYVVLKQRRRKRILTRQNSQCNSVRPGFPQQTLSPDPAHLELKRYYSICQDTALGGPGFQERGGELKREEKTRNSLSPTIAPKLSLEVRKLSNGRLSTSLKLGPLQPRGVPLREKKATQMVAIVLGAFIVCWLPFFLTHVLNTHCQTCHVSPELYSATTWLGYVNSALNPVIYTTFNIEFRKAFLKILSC
In short: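 Competition radioligand binding at human D2, D3 and D4.4 receptors, detected by scintillation counting; nonspecific binding defined with excess unlabelled ligand. Results as percent inhibition of control specific binding; IC50 by Hill-equation nonlinear regression; Ki via Cheng-Prusoff, with radioligand KD from Scatchard plot.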

[3] = biological target: T1, 5-HT1A receptor (rat hippocampus) (Rattus norvegicus, UniProt P19327); assay: Radioligand binding assay, serotoninergic 5-HT1A receptors; settings: binding assay result in %, Table 5a;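 also: test compound at 1 µM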
T1 construct: hippocampus; from tissue; host or cells: rat hippocampus
T1 sequence (P19327 1-422): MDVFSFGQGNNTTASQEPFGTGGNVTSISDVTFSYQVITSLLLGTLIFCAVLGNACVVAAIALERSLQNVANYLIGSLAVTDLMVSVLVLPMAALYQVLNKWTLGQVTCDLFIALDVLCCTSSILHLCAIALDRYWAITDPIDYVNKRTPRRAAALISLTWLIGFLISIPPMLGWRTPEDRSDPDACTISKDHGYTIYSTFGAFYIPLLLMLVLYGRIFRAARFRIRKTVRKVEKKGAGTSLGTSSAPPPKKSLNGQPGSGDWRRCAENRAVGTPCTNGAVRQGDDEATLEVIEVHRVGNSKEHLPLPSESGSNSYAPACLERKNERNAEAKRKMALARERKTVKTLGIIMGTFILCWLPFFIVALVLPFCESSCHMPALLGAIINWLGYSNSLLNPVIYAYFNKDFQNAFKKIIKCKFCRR

5-HT2A receptor = biological target: T2, 5-HT2A receptor (Homo sapiens, UniProt P28223); assay: Radioligand binding assay, serotoninergic 5-HT2A receptors; settings: binding assay result in %, Table 5a
T2 construct: purchased PerkinElmer
T2 sequence (P28223 whole entry): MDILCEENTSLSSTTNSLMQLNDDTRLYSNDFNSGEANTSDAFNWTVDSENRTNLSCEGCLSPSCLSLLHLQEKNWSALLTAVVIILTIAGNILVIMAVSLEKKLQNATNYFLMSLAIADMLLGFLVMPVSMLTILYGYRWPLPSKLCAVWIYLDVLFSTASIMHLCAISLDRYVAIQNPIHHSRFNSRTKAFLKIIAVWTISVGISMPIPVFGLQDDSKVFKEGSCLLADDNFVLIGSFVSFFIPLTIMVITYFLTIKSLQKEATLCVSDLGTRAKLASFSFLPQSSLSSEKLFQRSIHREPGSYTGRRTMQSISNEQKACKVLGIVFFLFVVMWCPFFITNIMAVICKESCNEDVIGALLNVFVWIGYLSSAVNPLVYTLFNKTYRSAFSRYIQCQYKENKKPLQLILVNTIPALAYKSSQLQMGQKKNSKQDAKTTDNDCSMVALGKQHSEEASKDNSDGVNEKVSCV
In short: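 Radioligand competition binding with scintillation counting; nonspecific binding defined by excess unlabelled ligand. Data as percent inhibition of control specific binding. IC50 by Hill-equation fit of competition curves; Ki by Cheng-Prusoff, with radioligand Kd from Scatchard plot.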

5-HT6 receptor = biological target: T3, 5-HT6 receptor (Homo sapiens, UniProt P50406); assay: Radioligand binding assay, serotoninergic 5-HT6 receptors; settings: binding assay result in %, Table 5a;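 also: test compound at 1 µM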
T3 construct: purchased PerkinElmer
T3 sequence (P50406 whole entry): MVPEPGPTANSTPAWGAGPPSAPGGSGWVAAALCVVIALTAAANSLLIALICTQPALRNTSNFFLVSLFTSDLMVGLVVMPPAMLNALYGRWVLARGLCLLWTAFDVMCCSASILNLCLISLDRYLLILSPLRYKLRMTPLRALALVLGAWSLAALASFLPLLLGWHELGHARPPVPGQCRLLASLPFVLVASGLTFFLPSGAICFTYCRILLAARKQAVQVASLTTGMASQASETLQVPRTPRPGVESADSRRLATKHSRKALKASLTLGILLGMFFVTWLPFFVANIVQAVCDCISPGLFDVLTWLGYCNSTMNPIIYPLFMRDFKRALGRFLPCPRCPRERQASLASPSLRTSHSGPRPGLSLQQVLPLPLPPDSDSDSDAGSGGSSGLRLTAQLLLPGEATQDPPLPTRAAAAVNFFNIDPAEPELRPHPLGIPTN
In short: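 Values are Ki from Cheng–Prusoff, taking IC50 from Hill nonlinear regression of competition curves and KD from a Scatchard plot. Specific binding was total minus binding with excess unlabelled ligand. Radioligand displacement was detected by scintillation counting, and data were also reported as percent of control specific binding.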

5-HT7 receptor = biological target: T4, 5-HT7 receptor (Homo sapiens, UniProt P34969); assay: Radioligand binding assay, serotoninergic 5-HT7 receptors; settings: binding assay result in %, Table 5a;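 also: test compound at 1 µM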
T4 construct: purchased PerkinElmer
T4 sequence (P34969 whole entry): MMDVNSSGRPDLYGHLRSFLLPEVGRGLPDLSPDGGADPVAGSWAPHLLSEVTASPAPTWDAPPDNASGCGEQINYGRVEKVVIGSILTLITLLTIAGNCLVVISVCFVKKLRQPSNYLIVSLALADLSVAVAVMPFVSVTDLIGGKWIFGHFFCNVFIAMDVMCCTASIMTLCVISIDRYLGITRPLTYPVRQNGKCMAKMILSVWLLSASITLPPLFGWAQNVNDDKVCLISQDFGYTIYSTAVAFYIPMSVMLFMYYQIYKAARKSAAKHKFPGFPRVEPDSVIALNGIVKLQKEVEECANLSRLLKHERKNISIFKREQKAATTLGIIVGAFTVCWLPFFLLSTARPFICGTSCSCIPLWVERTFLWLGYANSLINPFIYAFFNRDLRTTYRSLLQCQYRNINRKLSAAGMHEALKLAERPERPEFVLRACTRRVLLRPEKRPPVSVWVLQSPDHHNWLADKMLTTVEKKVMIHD
In short: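 Competition binding at human 5-HT7 receptors with a radioligand, detected by scintillation counting; non-specific binding was defined with excess unlabelled ligand. IC50 came from Hill-equation fits of competition curves, and Ki from Cheng–Prusoff using radioligand concentration and Scatchard-derived KD.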

[4] = tested on: α1 adrenergic receptors (rat cerebral cortex); assay: Radioligand binding assay, adrenergic α1 receptors; settings: test compound 1×10^−6 M
Excerpt: The specific ligand binding to the receptors is defined as the difference between the total binding and the non-specific binding determined in the presence of the excess of unlabelled ligand.
The results are expressed as a percent of control specific binding ((measured specific binding/control specific binding)×100) and as a percent inhibition of control specific binding (100−((measured specific binding/control specific binding)×100)) obtained in the presence of the test compounds. The specific ligand binding to the receptors is defined as the difference between the total binding and the nonspecific binding determined in the presence of an excess of unlabelled ligand. Scintillation counting was the method of detection of ligand binding. The IC50 values (concentration causing a half-maximal inhibition of control specific binding) were determined by non-linear regression analysis of the competition curves generated with mean replicate values using Hill equation curve fitting (Y=D+[(A−D)/(1+(C/C50)nH)], where Y=specific binding, D=minimum specific binding, A=maximum specific binding, C=compound concentration, C50=IC50, and nH=slope factor). […] The inhibition constants (Ki) were calculated using the Cheng Prusoff equation (Ki=IC50/(1+(L/KD)), where L=concentration of radioligand in the assay, and KD=affinity of the radioligand for the receptor). A scatchard plot was used to determine the Kd.

[5] = biological target: T5, serotonin transporter (SERT) (Homo sapiens, UniProt P31645); assay: Radioligand binding assay, serotonin transporter (SERT); settings: binding assay, test compound 1×10^−6 M
T5 construct: expressed in transfected cells; host or cells: CHO cells
T5 sequence (P31645 whole entry): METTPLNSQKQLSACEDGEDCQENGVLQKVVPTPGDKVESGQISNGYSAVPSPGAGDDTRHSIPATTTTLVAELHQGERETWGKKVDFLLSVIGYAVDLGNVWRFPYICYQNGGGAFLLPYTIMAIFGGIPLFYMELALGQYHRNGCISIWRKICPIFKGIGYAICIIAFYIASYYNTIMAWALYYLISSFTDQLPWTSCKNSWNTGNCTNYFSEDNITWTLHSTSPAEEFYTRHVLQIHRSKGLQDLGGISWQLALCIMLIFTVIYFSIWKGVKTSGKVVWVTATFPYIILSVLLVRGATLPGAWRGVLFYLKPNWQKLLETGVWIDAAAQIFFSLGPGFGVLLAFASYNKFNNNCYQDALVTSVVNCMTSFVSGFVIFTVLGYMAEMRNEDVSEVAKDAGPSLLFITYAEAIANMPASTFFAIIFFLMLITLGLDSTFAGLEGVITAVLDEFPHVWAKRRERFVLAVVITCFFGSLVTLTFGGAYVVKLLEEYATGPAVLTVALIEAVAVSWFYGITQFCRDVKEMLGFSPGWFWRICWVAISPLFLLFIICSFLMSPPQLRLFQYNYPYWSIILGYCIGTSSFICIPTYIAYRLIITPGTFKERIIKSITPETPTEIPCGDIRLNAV
In short: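 Radioligand competition binding with scintillation detection; specific binding is total minus binding under excess unlabelled ligand. Reported as % of control specific binding or % inhibition; IC50 from Hill-equation non-linear regression of competition curves, and Ki via Cheng-Prusoff using radioligand concentration and Scatchard-derived KD.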

Chain of dopaminergic receptors D2 (P14416 whole entry): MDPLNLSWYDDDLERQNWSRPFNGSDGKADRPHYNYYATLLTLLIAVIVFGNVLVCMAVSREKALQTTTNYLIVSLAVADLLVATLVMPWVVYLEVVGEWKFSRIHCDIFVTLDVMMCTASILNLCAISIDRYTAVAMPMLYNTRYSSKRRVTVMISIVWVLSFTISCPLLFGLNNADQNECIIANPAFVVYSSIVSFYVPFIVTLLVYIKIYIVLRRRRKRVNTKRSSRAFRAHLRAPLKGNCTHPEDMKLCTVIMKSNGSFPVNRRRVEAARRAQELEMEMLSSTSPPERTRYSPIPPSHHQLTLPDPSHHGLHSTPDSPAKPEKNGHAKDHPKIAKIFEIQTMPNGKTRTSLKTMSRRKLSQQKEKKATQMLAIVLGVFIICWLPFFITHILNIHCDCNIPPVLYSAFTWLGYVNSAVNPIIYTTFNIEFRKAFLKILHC

| Molecule | inhibition at 1 µM [1] | inhibition at 1 µM [2] | inhibition at 1 µM [3] | inhibition at 1 µM (5-HT2A receptor) | inhibition at 1 µM (5-HT6 receptor) | inhibition at 1 µM (5-HT7 receptor) | α1 [%] [4] | inhibition at 1 µM [5] | D2 [%] [1] | D3 [%] [2] | 5-HT1A [%] [3] | 5-HT2A [%] (5-HT2A receptor) | 5-HT6 [%] (5-HT6 receptor) | 5-HT7 [%] (5-HT7 receptor) | SERT [%] [5] |
| --- | --- | --- | --- | --- | --- | --- | --- | --- | --- | --- | --- | --- | --- | --- | --- |
| O=S(=O)(NCC1CN(CCOc2cccc3c2OCCO3)C1)c1csc2ccccc12 [Compound 190, N-[[1-[2-(2,3-Dihydro-1,4-benzodioxin-5-yloxy)ethyl]azetidin-3-yl]methyl]-benzothiophene-3-sulphonamide] | 51% | 62% | 100% | 68% | 34% | 97% | 86% | 31% | – | – | – | – | – | – | – |
| O=S(=O)(NCC1CCN(CCOc2cccc3ccccc23)C1)c1csc2ccccc12 (stereo not drawn) [Compound 276, N-[[1-[2-(1-Naphthyloxy)ethyl]pyrrolidin-3-yl]methyl]benzothiophene-3-sulphonamide] | 41% | 91% | 81% | 92% | 84% | 82% | 16% | 84% | – | – | – | – | – | – | – |
| Cc1cccc(S(=O)(=O)NC2CCN(CCOc3cccc4[nH]ccc34)C2)c1 (stereo not drawn) [Compound 52, N-[1-[2-(1H-Indol-4-yloxy)ethyl]pyrrolidin-3-yl]-3-methylbenzene-sulphonamide] | 77% | 106% | 90% | 89% | 41% | 90% | 81% | 38% | – | – | – | – | – | – | – |
| CC1(C)Cc2cccc(OCCN3CCC(CNS(=O)(=O)c4cccc(O)c4)C3)c2O1 (stereo not drawn) [Compound 113, N-[[1-[2-[(2,2-Dimethyl-3H-benzofuran-7-yl)oxy]ethyl]pyrrolidin-3-yl]methyl]-3-hydroxy-benzenesulphonamide] | 47% | 55% | 81% | 65% | 52% | 85% | 55% | 18% | – | – | – | – | – | – | – |
| O=S(=O)(NCC1CCN(CCOc2cccc3c2OCCO3)C1)c1ccc(Cl)cc1 (stereo not drawn) [Compound 289, 4-Chloro-N-[[1-[2-(2,3-dihydro-1,4-benzodioxin-5-yloxy)ethyl]pyrrolidin-3-yl]methyl]benzenesulphonamide] | -19% | 41% | 99% | 61% | -1% | 81% | 46% | 53% | – | – | – | – | – | – | – |
| O=S(=O)(NCC1CN(CCOc2nsc3ccccc23)C1)c1ccc2ccccc2c1 [Compound 162, N-[[1-[2-(1,2-Benzothiazol-3-yloxy)ethyl]azetidin-3-yl]methyl]-naphthalene-2-sulphonamide] | 61% | 100% | 85% | -17% | -56% | 91% | 83% | -9% | – | – | – | – | – | – | – |
| O=S(=O)(NCC1CCN(CCOc2cccc3c2OCCO3)C1)c1ccc2scnc2c1 (stereo not drawn) [Compound 285, N-[[1-[2-(2,3-Dihydro-1,4-benzodioxin-5-yloxy)ethyl]pyrrolidin-3-yl]methyl]-1,3-benzothiazole-5-sulphonamide] | 24% | 18% | 62% | 77% | 34% | 86% | 69% | 60% | – | – | – | – | – | – | – |
| O=S(=O)(NC1CN(CCOc2cccc3c2OCCO3)C1)c1cccc(Cl)c1 [Compound 91, 3-Chloro-N-[1-[2-(2,3-dihydro-1,4-benzodioxan-8-yloxy)ethyl]azetidin-3-yl]benzenesulphonamide] | – | – | – | – | – | – | −15% | – | 15% | −8% | 88% | 47% | −20% | 91% | −4% |
| O=S(=O)(NC1CCN(CCCc2c[nH]c3ccc(Cl)cc23)C1)c1ccc2ccccc2c1 (stereo not drawn) [Compound 87, N-[1-[3-(5-Chloro-1H-indol-3-yl)propyl]pyrrolidin-3-yl]naphthalene-2-sulphonamide] | 63% | 86% | 105% | 78% | 91% | 71% | 18% | 64% | – | – | – | – | – | – | – |
| O=S(=O)(NCC1CN(CCCc2c[nH]c3ccc(F)cc23)C1)c1ccc2ccccc2c1 [Compound 160, N-[[1-[3-(5-Fluoro-1H-indol-3-yl)propyl]azetidin-3-yl]methyl]naphthalene-2-sulphonamide] | 86% | 87% | 76% | 97% | 83% | 75% | 49% | 100% | – | – | – | – | – | – | – |
| Cc1c(S(=O)(=O)NC2CCN(CCCc3noc4cc(F)ccc34)CC2)sc2ccc(Cl)cc12 [Compound 326, 5-Chloro-N-[1-[3-(6-fluoro-1,2-benzoxazol-3-yl)propyl]-4-piperidyl]-3-methyl-benzothiophene-2-sulphonamide] | 86% | 61% | -1% | 97% | 83% | 91% | 70% | 10% | – | – | – | – | – | – | – |
| O=S(=O)(NC1CCN(CCCc2noc3cc(F)ccc23)CC1)c1ccc2ccccc2c1 [Compound 35, N-[1-[3-(6-Fluoro-1,2-benzoxazol-3-yl)propyl]-4-piperidine]-naphthalene-2-sulphonamide] | – | – | – | – | – | – | 99% | – | 77% | 56% | 28% | 91% | 97% | 98% | 29% |
| N-[1-[3-(6-Fluoro-1,2-benzoxazol-3-yl)propyl]pyrrolidin-3-yl]-1,3-benzothiazole-4-sulphonamide [Compound 31] | – | – | – | – | – | – | 100% | – | 87% | 27% | 58% | 84% | 76% | 89% | 36% |
| O=S(=O)(NCC1CN(CCOc2cccc3c2OCCO3)C1)c1ccc(Br)cc1 [Compound 185, 4-Bromo-N-[[1-[2-(2,3-dihydro-1,4-benzodioxin-5-yloxy)ethyl]azetidin-3-yl]methyl]benzenesulphonamide] | 25% | 0% | 88% | 39% | 23% | 90% | 34% | 23% | – | – | – | – | – | – | – |
| O=S(=O)(NC1CCN(CCCc2noc3cc(F)ccc23)C1)c1cnc2ccccn12 (stereo not drawn) [Compound 30, N-[1-[3-(6-Fluoro-1,2-benzoxazol-3-yl)propyl]pyrrolidin-3-yl]imidazo-[1,2-a]pyridine-3-sulphonamide] | 62% | -2% | 5% | 95% | 77% | 82% | 84% | 36% | – | – | – | – | – | – | – |
